Results from PubChem BioAssay (NCI).
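Cultured in 96-well plates, cells were exposed to test compound for 48 hours across five concentrations. TGI: concentration producing complete growth inhibition.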

Legend:
Experiment in all cases: DTP human tumour cell line panel, 48 h
[1] = tested on: HOP-62 NSCLC
[2] = tested on: KM20L2 colon
[3] = tested on: LOX IMVI melanoma
[4] = tested on: LXFL 529 NSCLC
[5] = tested on: M19-MEL melanoma
[6] = tested on: NCI-H460 lung
[7] = tested on: NCI-H522 lung
[8] = tested on: OVCAR-3 ovarian
[9] = tested on: RPMI-8226 leukemia
[10] = tested on: SNB-78 CNS
[11] = tested on: TK-10 renal
[12] = tested on: UACC-257 melanoma

Structure (SMILES) | TGI [1] | TGI [2] | TGI [3] | TGI [4] | TGI [5] | TGI [6] | TGI [7] | TGI [8] | TGI [9] | TGI [10] | TGI [11] | TGI [12]
CC(C)Cc1ccc(C(C)/C=C2\CCC(CN3CCCC3)C2=O)cc1 (stereo not drawn) | 26.1 µM | 33.3 µM | 8.49 µM | 4.77 µM | 13.7 µM | 37.9 µM | 3.13 µM | 12.7 µM | 5.53 µM | 42.5 µM | 9.92 µM | 31.1 µM
c1ccc2c(c1)nnn2CNc1ccc(N2CCOCC2)cc1 | > 100 µM | > 100 µM | > 100 µM | > 100 µM | > 100 µM | > 100 µM | > 100 µM | > 100 µM | > 100 µM | > 100 µM | > 100 µM | > 100 µM
S=P(c1ccccc1)(c1ccccc1)C1(C2(P(=S)(c3ccccc3)c3ccccc3)CC2)CC1 | > 100 µM | > 100 µM | > 100 µM | > 100 µM | > 100 µM | > 100 µM | > 100 µM |  |  | > 100 µM | > 100 µM | 
O=C1NC(=O)C(=O)C(c2nc3ccccc3s2)C1=O | > 100 µM | > 100 µM |  | > 100 µM | > 100 µM | > 100 µM | > 100 µM | > 100 µM |  | > 100 µM | > 100 µM | > 100 µM
CCC(O)(c1ccc(OC)cc1)C(c1ccc(OCc2ccccc2)cc1)c1ccc(OCc2ccccc2)cc1 (stereo not drawn) | > 100 µM | > 100 µM | > 100 µM | > 100 µM | > 100 µM | > 100 µM | > 100 µM | > 100 µM | > 100 µM | > 100 µM | > 100 µM | > 100 µM
CC(Oc1ccc(OCC2CCCCC2)cc1)C(=O)O (stereo not drawn) |  |  | > 100 µM | > 100 µM | > 100 µM | > 100 µM | > 100 µM | > 100 µM |  | > 100 µM | > 100 µM | > 100 µM
O=C(N/C(=C\c1ccc([N+](=O)[O-])cc1)c1nc2ccc(Cl)cc2[nH]1)c1ccccc1 |  | 50.9 µM |  | 70.7 µM | > 100 µM |  | 27.8 µM | 52 µM |  | > 100 µM | 88.7 µM | 
NC1=NC(c2ccccc2)CC(c2cc(Cl)cc(Br)c2O)=N1 (stereo not drawn) | 25.1 µM | 30.8 µM | 27.7 µM | 31.3 µM | 28.2 µM | 19.9 µM | 15.4 µM | 30.2 µM | 33.6 µM | 47.7 µM | 37.3 µM | 36.2 µM
CCOC(=O)/C(C#N)=C\C=C1/C=CNC2=NCCN21 | > 100 µM | > 100 µM | > 100 µM | > 100 µM | > 100 µM | > 100 µM | > 100 µM | > 100 µM | > 100 µM | > 100 µM | > 100 µM | > 100 µM
CC(=O)O[C@H]1CCC2[C@@H]3CCC4Nc5c(cnn5-c5ccccc5)C[C@]4(C)C3CC[C@@]21C (stereo partly drawn) | 95.7 µM | 37.1 µM | 25.4 µM | 58.5 µM | 24.4 µM | 42.1 µM | 29.7 µM | 46.2 µM | 46.2 µM | 63.4 µM | 50.3 µM | 23.7 µM
C[C@@H](NC1CCC[C@@H]1O)c1ccccc1 (stereo partly drawn) | > 100 µM | > 100 µM | > 100 µM | > 100 µM | > 100 µM | > 100 µM |  | > 100 µM | > 100 µM | > 100 µM | > 100 µM | > 100 µM
CC1=C(/C=C/C2=CC(=C\C(=O)O)/CC(C3=C(C)CCCC3(C)C)C2)C(C)(C)CCC1 (stereo not drawn) | 27 µM |  | 27.6 µM | 26.8 µM | 30.6 µM | 27.8 µM | 22.7 µM | 27.1 µM | 27 µM | 41.2 µM | 27.3 µM | 29.5 µM
O=C(O)CN(c1ccccc1)S(=O)(=O)c1ccc(Cl)cc1 |  | > 100 µM | > 100 µM | > 100 µM | > 100 µM | > 100 µM | > 100 µM |  | > 100 µM |  | > 100 µM | > 100 µM
CCCC1C(=O)C(CC)Cc2c(OC)ccc(OC)c21 (stereo not drawn) | > 100 µM |  | > 100 µM | > 100 µM | > 100 µM | > 100 µM | > 100 µM | > 100 µM | > 100 µM | > 100 µM | > 100 µM | > 100 µM
N#CC(C(=O)CCC(=O)Nc1ccc(Cl)cc1)c1ccccc1Cl (stereo not drawn) |  | > 100 µM |  | > 100 µM | > 100 µM | > 100 µM | > 100 µM | > 100 µM | > 100 µM | > 100 µM | > 100 µM | > 100 µM
C[Si](C)(C)/C=C\CCCN1C(=O)CCC1=O |  | > 100 µM | > 100 µM | > 100 µM | > 100 µM | > 100 µM | > 100 µM | > 100 µM | > 100 µM | > 100 µM | > 100 µM | > 100 µM
O=C(c1cc2c(C(F)(F)F)onc2c2ccccc12)C(F)(F)F | 11.3 µM | 25.1 µM | 18.3 µM | > 47 µM | 23.4 µM | 7.17 µM | 6.25 µM | 13.8 µM | 12.8 µM | 3.82 µM | 42.2 µM | 47.5 µM
CCOC(=O)CNC1C(NC(C)=O)C(OC)OC2COC(c3ccccc3)OC21 (stereo not drawn) |  | > 100 µM | > 100 µM | > 100 µM | > 100 µM | > 100 µM | > 100 µM | > 100 µM | > 100 µM | > 100 µM | > 100 µM | > 100 µM
NNC(=O)CCC(=O)Nc1ccc(Cl)cc1Cl | > 100 µM | > 100 µM | > 100 µM | > 100 µM | > 100 µM | > 100 µM | > 100 µM | > 100 µM | > 100 µM | > 100 µM | > 100 µM | > 100 µM
COc1cc2ccnc3c2c(c1OC)CC1CC(O)C(OC)CC31 (stereo not drawn) | > 100 µM | > 100 µM | > 100 µM | > 100 µM | > 100 µM | > 100 µM | > 100 µM | > 100 µM | > 100 µM | > 100 µM | > 100 µM | > 100 µM
COc1cc([C@@H]2c3cc4c(cc3[C@@H](NCc3ccc(C#N)cc3)C3COC(=O)[C@@H]32)OCO4)cc(OC)c1O (stereo partly drawn) | 1.41 µM | 3.99 µM | 4.36 µM | 50.2 µM | 19.5 µM | 1.77 µM | 2.83 µM | 5.51 µM | 5.07 µM | 53.2 µM | 3.76 µM | 33.9 µM
CCCCCCCC(=O)OCC1OC(n2cc(F)c(=O)[nH]c2=O)C(NC(=O)OCc2ccccc2)C(OC(=O)CCCCCCC)C1O (stereo not drawn) | > 100 µM | > 100 µM | 29.7 µM | > 100 µM | 54.6 µM | > 100 µM | 72 µM | 47.7 µM | 51.2 µM | > 100 µM | > 100 µM | > 100 µM
C[C@]12CC(C#N)C(=O)C(O)=C1CC[C@@H]1C2CC[C@@]2(C)C1CC[C@@H]2O (stereo partly drawn) | > 100 µM | > 100 µM | > 100 µM | > 100 µM |  | > 100 µM |  | > 100 µM | > 100 µM | > 100 µM | > 100 µM | > 100 µM
CC(C)c1cccc(C(C)C)c1N=C(N)C#N | > 100 µM | > 100 µM | > 56.2 µM | > 100 µM | > 100 µM | > 62.5 µM | > 100 µM | > 100 µM | > 87.3 µM | > 100 µM | > 100 µM | > 79.6 µM
